# In patent US20260226493A1, “HERBICIDE RESISTANT PLANTS” (SYNGENTA CROP PROTECTION AG, priority 2023, published 2026):
# Legend:
# Format in all cases: biochemical
# [1] = test system: Quercus robur BioDA; assay: BioDA enzyme activity with DMSO or herbicide in vitro; details: Quercus robur BioDAΔMTP
# Source text: (§1) A pet-24 plasmid containing a DNA sequence encoding each identified variant mutant of BIO3-BIO1 derived from Arabidopsis thaliana from example 5 above, as shown in Table 13 below and as shown in full in SEQ ID NOs: 15 to 155, codon-optimised for expression in E. coli, with an N-terminal 6×His-tag and thrombin cleavage site and under control of a T7 promoter, and was synthesised by Twist Bioscience, in a similar manner to SEQ ID NO:311. These plasmids were then expressed in E. coli BL21 (DE3) bioA with 50 μg/mL kanamycin and 25 μg/mL chloramphenicol selection. Overnight cultures grown at 37° C. were used to inoculate 8×500 mL AIM in shake flasks at a ratio of 1:100. Cultures were grown at 37° C., 200 rpm for 3.5 hours and then overnight at 20° C. Cells were harvested by centrifugation for 30 minutes at 10 000 g. Cells were stored at −80° C. until extraction. 30 g of cell pellet from was thawed in 120 mL of IMAC buffer A (20 mM HEPES pH7.5, 25 mM imidazole, 500 mM sodium chloride, 0.15 mM pyridoxal phosphate, 0.5 mM TCEP, 1× complete Protease Inhibitor Tablet (Roche)). The resuspension was passed through a cell disrupter at 18 000 PSI and centrifuged at 50 000 g for 25 minutes at 4° C. The His-tagged BIO3-BIO1 protein was purified from the extract supernatant on an AKTA avant chromatography system (Cytiva) using a HisTrap FF column and eluted in IMAC buffer B ((20 mM HEPES pH7.5, 500 mM imidazole, 500 mM sodium chloride, 0.15 mM pyridoxal phosphate, 0.5 mM TCEP) followed by SEC using a HiLoad 26/60 Superdex200 column in SEC buffer (25 mM HEPES pH7.5, 150 mM sodium chloride, 0.15 mM pyridoxal phosphate, 0.5 mM TCEP). Protein concentration was measured and calculated using the absorbance at 280 nm. Extracts were diluted 1 in 4 and 10 uL was analysed by SDS PAGE.
# (§2) To measure BIO3-BIO1 mutant enzyme activity in the presence of herbicide, herbicides were incubated with 20 μL of enzyme mix (100 mM EPPS pH 8.6, 0.1 mM pyridoxal phosphate, 0.1 mg/mL BSA, 50 nM BIO3-BIO1 enzyme) for 10 minutes at 20° C. in a well of a 96-well half-area black plate, followed by the addition of 20 μL of substrate mix (final concentration of 100 mM EPPS pH 8.6, 0.1 mM pyridoxal phosphate, 0.1 mg/mL BSA, 100 μM spermidine, 20 μM KAPA, 100 mM NaCO3) and further incubation for 75 minutes at 20° C. The reaction was terminated by the addition of 50 μL of derivatisation mix (final concentration of 250 mM borate NaOH pH 9.4, 3.6 mM o-phthalaldehyde, 7 mM β-mercaptoethanol, 17% (v/v) ethanol, 3.6% (v/v) methanol). The fluorescent product produced by the reaction of DAPA with o-phthalaldehyde and 7 mM β-mercaptoethanol was measured at 470 nm after excitation at 410 nm. The percentage inhibition was calculated as the activity in the presence of one of three concentrations of each herbicide compound A to M (note that the compounds labelled as A to M are identified hereinabove in the relevant section of the description) as a percentage of the activity in DMSO (Table 12 and 13). The percentage activity versus WT was also calculated and is shown in Table 13 and 14 (NT indicates mutation not tested in table 13, note that these mutations are tested at different compound concentrations for compounds L, M and C, and the results are shown in table 14).
# (§3) The activity of various wild-type BioDA and variant enzymes was also tested when treated with DMSO or herbicide in vitro.
# (§4) Protein of Schizosaccharomyces japonicus BioDA (SEQ ID NO:13), Nannochloropsis gaditana BioDA (SEQ ID NO:3), Selaginella moellendorffii BioDA (SEQ ID NO:319), Quercus robur BioDA (SEQ ID NOA11), Ostreococcus tauri BioDA (SEQ ID NO:9), and the variants of Ostreococcus tauri BioDA A374D, F332A and P407A (SEQ ID Nos:321-323) was prepared using the method in Example 6. BioDA enzyme activity in the presence of herbicide or DMSO in vitro for each of the proteins was assayed according to the enzyme assay method above. The results are shown in Table 26 provided below in the “TABLES” section.
# [2] = test system: Selaginella moellendorffii BioDA; assay: as above; details: Selaginella moellendorcffii BioDAΔMTP
# Source text: as §1, §2, §3, §4
# [3] = test system: Nannochloropsis gaditana BioDA; assay: as above
# Source text: as §1, §2, §3, §4
# [4] = test system: Ostreococcus tauri BioDA; assay: as above; details: Ostreococcus tauri BioDAΔMTP
# Source text: as §1, §2, §3, §4
# [5] = test system: Tenacibaculum adriaticum BioA; assay: BioA enzyme activity with DMSO or herbicide in vitro; details: spermidine in substrate mix
# Source text: as §1, §2
# (§5) Protein of Escherichia coli BioA (SEQ ID NO:159), Pantoea ananatis BioA (SEQ ID NO:167), Streptomyces viridochromogenes BioA (SEQ ID NO:170), Cryptosporidium andersoni BioA (SEQ ID NO:160), Stenotrophomonas maltophilia BioA (SEQ ID NO:171), Chroococcidiopsis BioA (SEQ ID NO:184), Pedobacter hartonius BioA (SEQ ID NO:181), Chitinophaga filiformis BioA (SEQ ID NO:180), Tenacibaculum adriaticum BioA (SEQ ID NO:185) and Bacillus subtilis BioA (SEQ ID NO:166) was prepared using the method in Example 6. BioA enzyme activity in the presence of herbicide or DMSO in vitro for each of the proteins was assayed according to the enzyme assay method in Example 6, except in some reactions spermidine was replaced with 2 mM S-Adenosyl methionine.
# [6] = test system: Streptomyces viridochromogenes BioA; assay: as above; details: SAM in substrate mix
# Source text: as §1, §2, §5
# [7] = test system: Stenotrophomonas maltophilia BioA; assay: as above; details: spermidine in substrate mix
# Source text: as §1, §2, §5
# [8] = molecular target: T1, Escherichia coli BioA (Escherichia coli, UniProt P12995); assay: as above; details: SAM in substrate mix, read-out: % Inhibition relative to DMSO treatment
# T1 construct: 6xHis-tag (N); thrombin cleavage site (N); made in house; host or cells: E. coli BL21 (DE3) bioA
# T1 sequence (P12995 whole entry): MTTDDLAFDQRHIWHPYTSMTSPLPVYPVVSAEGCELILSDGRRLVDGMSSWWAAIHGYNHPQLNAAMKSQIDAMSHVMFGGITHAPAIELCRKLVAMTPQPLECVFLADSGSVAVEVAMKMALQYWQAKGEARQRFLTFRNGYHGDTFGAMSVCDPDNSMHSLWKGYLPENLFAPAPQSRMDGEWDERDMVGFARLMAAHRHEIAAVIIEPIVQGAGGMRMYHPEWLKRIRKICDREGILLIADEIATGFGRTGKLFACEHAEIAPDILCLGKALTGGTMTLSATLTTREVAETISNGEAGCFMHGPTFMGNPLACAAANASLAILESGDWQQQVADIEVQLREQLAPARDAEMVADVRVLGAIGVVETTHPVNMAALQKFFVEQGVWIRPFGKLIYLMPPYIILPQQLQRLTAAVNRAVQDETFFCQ
# Source text: as §1, §2, §5
# [9] = test system: Pantoea ananatis BioA; assay: as above; details: SAM in substrate mix
# Source text: as §1, §2, §5
# [10] = test system: Pedobacter hartonius BioA; assay: as above; details: spermidine in substrate mix
# Source text: as §1, §2, §5
SMILES,% Inhibition relative to DMSO treatment ([1]; 0.5 μM),% Inhibition relative to DMSO treatment ([2]; 0.5 μM),% Inhibition relative to DMSO treatment ([3]; 0.5 μM),% Inhibition relative to DMSO treatment ([4]; 0.5 μM),% Inhibition relative to DMSO treatment ([4]; 31 μM),% Inhibition relative to DMSO treatment ([4]; 500 μM),% Inhibition relative to DMSO treatment ([5]; 0.5 μM),% Inhibition relative to DMSO treatment ([6]; 0.5 μM),% Inhibition relative to DMSO treatment ([7]; 0.5 μM),inhibition at 0.5 µM [8],inhibition at 31 µM [8],inhibition at 500 µM [8],% Inhibition relative to DMSO treatment ([9]; 0.5 μM),% Inhibition relative to DMSO treatment ([10]; 0.5 μM),% Inhibition relative to DMSO treatment ([1]; 200 μM),% Inhibition relative to DMSO treatment ([2]; 200 μM),% Inhibition relative to DMSO treatment ([3]; 200 μM),% Inhibition relative to DMSO treatment ([4]; 200 μM),% Inhibition relative to DMSO treatment ([5]; 200 μM),% Inhibition relative to DMSO treatment ([6]; 200 μM),further results
"CCn1c(Cn2ccc(C(F)(F)F)n2)cc(=O)c(C(=O)O)c1-c1ccc(Cl)c(Cl)c1 [Compound L, 2-(3,4-dichlorophenyl)-1-ethyl-4-oxo-6-[[3-(trifluoromethyl)pyrazol-1-yl]methyl]pyridine-3-carboxylic acid]",83%,9%,6%,5%,83%,98%,16%,0%,0%,4%,8%,35%,9%,2%,–,–,–,–,–,–,% Inhibition relative to DMSO treatment ([6]; 31 μM): 16%; % Inhibition relative to DMSO treatment ([6]; 500 μM): 34%; % Inhibition relative to DMSO treatment ([7]; 31 μM): 0%; % Inhibition relative to DMSO treatment ([7]; 500 μM): 16%; % Inhibition relative to DMSO treatment ([9]; 31 μM): 0%; % Inhibition relative to DMSO treatment ([9]; 500 μM): 23%
"CCn1c(C)c(-c2ccc(F)cc2F)c(=O)c(C(=O)O)c1-c1ccc(Cl)c(Cl)c1 [Compound C, 2-(3,4-dichlorophenyl)-5-(2,4-difluorophenyl)-1-ethyl-6-methyl-4-oxo-pyridine-3-carboxylic acid]",32%,9%,8%,0%,–,–,19%,0%,0%,8%,–,–,11%,0%,–,–,–,–,–,–,–
"CC(O)C(N)CCCCC(=O)O.Cl (stereo not shown) [Compound B, [5-carboxy-1-(1-hydroxyethyl)pentyl]ammonium chloride]",–,–,–,–,–,–,–,–,–,–,4%,23%,–,–,93%,64%,92%,62%,18%,0%,% Inhibition relative to DMSO treatment ([7]; 200 μM): 50%; inhibition at 200 µM [8]: 9%; % Inhibition relative to DMSO treatment ([9]; 200 μM): 15%; % Inhibition relative to DMSO treatment ([10]; 200 μM): 96%
"C[C@@H](N)COc1cccc(C(=O)O)n1.Cl.Cl [Compound E, [(1R)-2-(6-carboxypyridin-1-ium-2-yl)oxy-1-methyl-ethyl]ammonium dichloride]",–,–,–,–,–,–,–,–,–,–,–,–,–,–,96%,69%,66%,53%,16%,0%,% Inhibition relative to DMSO treatment ([7]; 200 μM): 74%; inhibition at 200 µM [8]: 12%; % Inhibition relative to DMSO treatment ([9]; 200 μM): 15%; % Inhibition relative to DMSO treatment ([10]; 200 μM): 80%
"CCn1c(-c2ccc(Cl)c(Cl)c2)c(C(=O)O)c(=O)c2cc(F)ccc21 [Compound M, 2-(3,4-dichlorophenyl)-1-ethyl-6-fluoro-4-oxo-quinoline-3-carboxylic acid]",22%,0%,3%,0%,45%,92%,13%,0%,1%,0%,–,–,11%,0%,–,–,–,–,–,–,–
